Assay in all cases: relative viability (nuclei count vs DMSO), 5 days (fraction); higher = more cells survive
Compound in assay [1]: C1=CC=C(C(=C1)C2=CC=C(C=C2)C3=CSC4=C3C(=C(C(=O)N4)C#N)O)O + CCNC(=O)c1noc(-c2cc(C(C)C)c(O)cc2O)c1-c1ccc(CN2CCOCC2)cc1 [Luminespib] (partner 0.01 µM)
The procedure, abridged: (§1)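 Dosing by pin tool came one day after lung cancer cell lines were seeded in 1536-well plates, using either one drug or a fixed anchor-drug dose plus five library-drug doses (not always all listed) in √10 steps. After 5 days, nuclei were counted on 4× images. Relative viability is treated-well nuclei count divided by vehicle-well nuclei count, and values are medians of duplicate plates.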

Compound in the assay “TGX 221 + OSI-027”: CC1=CN2C(=O)C=C(N=C2C(=C1)C(C)NC3=CC=CC=C3)N4CCOCC4 [TGX 221] + COc1cccc2cc(-c3nc([C@H]4CC[C@H](C(=O)O)CC4)n4ncnc(N)c34)[nH]c12 [OSI-027] (partner 0.5 µM)
The procedure, abridged: as §1

Compound in the assay “TGX 221 + Pictilisib”: CC1=CN2C(=O)C=C(N=C2C(=C1)C(C)NC3=CC=CC=C3)N4CCOCC4 [TGX 221] + CS(=O)(=O)N1CCN(Cc2cc3nc(-c4cccc5[nH]ncc45)nc(N4CCOCC4)c3s2)CC1 [Pictilisib] (partner 1 µM)
The method, boiled down: as §1

Compound in the assay “TGX 221 + Pemetrexed”: CC1=CN2C(=O)C=C(N=C2C(=C1)C(C)NC3=CC=CC=C3)N4CCOCC4 [TGX 221] + Nc1nc2[nH]cc(CCc3ccc(C(=O)N[C@@H](CCC(=O)O)C(=O)O)cc3)c2c(=O)[nH]1 [Pemetrexed] (partner 0.2 µM)
The method, boiled down:
as §1

The source of these data is the supplement of paper PMC10307832.

On to NCI-H1792, for which the relative viability is 0.576 in assay [1] (first compound 0.253 µM); 0.641 in assay [1] (first compound 0.8 µM); 0.473 in assay [1] (first compound 2.53 µM); 0.288 in assay [1] (first compound 8 µM); 0.768 with TGX 221 + OSI-027 (first compound 0.08 µM); 0.601 with TGX 221 + OSI-027 (first compound 0.253 µM). Further, the relative viability with TGX 221 + OSI-027 (first compound 0.8 µM) was determined as 0.71; with TGX 221 + OSI-027 (first compound 2.53 µM), 0.517; in the assay with TGX 221 + OSI-027 (first compound 8 µM), 0.564; with TGX 221 + Pictilisib (first compound 0.08 µM), 0.29; with TGX 221 + Pictilisib (first compound 0.253 µM), 0.281; with TGX 221 + Pictilisib (first compound 0.8 µM) it was 0.294. In addition, the relative viability with TGX 221 + Pictilisib (first compound 2.53 µM) turned out to be 0.246; with TGX 221 + Pictilisib (first compound 8 µM), 0.228; in the assay with TGX 221 + Pemetrexed (first compound 0.08 µM) it was 0.795; with TGX 221 + Pemetrexed (first compound 0.253 µM), 0.695; with TGX 221 + Pemetrexed (first compound 0.8 µM) it was 0.557; with TGX 221 + Pemetrexed (first compound 2.53 µM), 0.549. Besides, the relative viability in the assay with TGX 221 + Pemetrexed (first compound 8 µM) was 0.802.
